# Measured values as given in US11104933B1, “Compositions and methods for determining the presence of active leukocyte cells using an electrochemical assay” (Cleu Diagnostics, LLC, priority 2016, dated 2021).
# Tests used:
# [1] = system: leukocyte esterase (LE); assay: screen-printed electrode strip with monoester substrate, voltammograms at varying LE concentrations; type: biochemical; details: substrate screen-printed on electrode strip; 0.125 U/m to 0.35 U/ml LE (FIG. 7)
# Excerpt: In one embodiment, the substrate of the leukocyte esterase enzyme is screen-printed onto the surfaces of an electrode sensor strips using known and commercially-available techniques and materials.
# Specifically, electrode strips were screen printed with the substrate having the structure as depicted in Formula V. The strips were contacted with varying concentrations of LE (i.e. 0.125 U/m to 0.35 U/ml LE).
# The plot clearly indicates significant reduction peaks at about −0.17 V, which correspond to the redox reaction of hydroquinone molecules that are released upon cleavage of the monoester by leukocyte esterases at the ester active site. […] Based on this measured level, a determination can be made as to whether the patient's level of LE is high enough to indicate infection.
# [2] = system: leukocyte esterase (LE); assay: internally calibrated electrochemical continuous enzyme assay (ICECEA) with TAPTA as enzyme substrate; type: biochemical; details: LE concentrations 0-250 μg/L, amperometric current (FIG. 4)
# Procedure: ICECEAs generally follow the following method as described in U.S. 201610040209. First, an enzyme substrate (e.g. an LE and/or HNE substrate of the present disclosure) is placed in a background electrolyte. Next, a reactant or product of an enzymatic reaction of the enzyme is added to the first enzyme substrate/background electrolyte, which creates what is described as a “first assay mixture.” Current flowing through an electrode of the electrochemical assay is then measured after the first assay mixture is formed. Next, the enzyme (e.g. LE and/or HNE) is added to the “first assay mixture” to create a “second assay mixture,” and the current is measured again over a predetermined time period. Enzyme activity is determined based on the change in current over time caused by the addition of the enzyme. […]
# The ICECEA includes an electrochemical measuring device. […] The current is measured through the working electrode. […]
# Generally, in an ICECEA, adding the reactant/product to the enzyme substrate (in electrolyte) in the electrochemical assay system includes the following steps. […] Current flowing through an electrode of the electrochemical assay system is measured after the first aliquot is added. One or more additional aliquots of the reactant/product are added to the mixture and current flowing through an electrode of the electrochemical assay system is measured again. […]
melting point,SMILES,relation of reduction peaks to LE activity in the sample [1],response of LE enzyme activity relative to LE concentration [2]
113 to 116 °C,COC(=O)c1cncc(S(=O)(=O)N[C@@H](C)C(=O)Oc2ccc(O)cc2)c1 [monoester],directly related to the LE activity within the sample in a dose dependent manner,
,"Cc1ccc(S(=O)(=O)N[C@@H](C)C(=O)Oc2ccc(OC(=O)[C@H](C)NS(=O)(=O)c3ccc(C)cc3)cc2)cc1 [TAPTA, 4-((tosyl-L-alanyl)oxy)phenyl tosyl-L-alaninate]",,linear response relative to LE concentration
